Measurements published in PMC4589357, “The Role of Electrostatic Interactions in Binding of Histone H3K4me2/3 to the Sgf29 Tandem Tudor Domain” (PLoS ONE, 2015).
“And” between values parts separate entries of the source, which are not always exact repeats. Equal values may be shown once.

How the values were obtained:
[1] = target: T1, tandem tudor domain of Sgf29, WT (Homo sapiens, UniProt Q96ES7); test: ITC binding of histone peptides to WT Sgf29
T1 construct: 6xHis (cleaved yes); made in house; host or cells: E. coli Rosetta BL21 DE3 PlysS
T1 sequence (Q96ES7 115-293): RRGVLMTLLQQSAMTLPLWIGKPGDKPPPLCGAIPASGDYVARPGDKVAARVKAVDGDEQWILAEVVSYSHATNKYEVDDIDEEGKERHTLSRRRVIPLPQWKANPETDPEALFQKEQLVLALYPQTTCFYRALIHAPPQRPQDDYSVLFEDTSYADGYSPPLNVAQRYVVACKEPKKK

[2] = target: T2, Sgf29 D266E (Homo sapiens, UniProt Q96ES7, D266E); test: ITC binding of histone peptides to Sgf29 D266E
T2 construct: 6xHis (cleaved yes); made in house; host or cells: E. coli Rosetta BL21 DE3 PlysS
T2 sequence (Q96ES7 115-293 D266E): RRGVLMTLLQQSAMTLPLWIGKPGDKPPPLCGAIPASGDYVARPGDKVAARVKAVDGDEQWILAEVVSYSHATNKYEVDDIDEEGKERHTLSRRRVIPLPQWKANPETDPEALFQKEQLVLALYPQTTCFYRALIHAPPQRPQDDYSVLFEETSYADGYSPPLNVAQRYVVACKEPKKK

[3] = target: T3, Sgf29 D266A (Homo sapiens, UniProt Q96ES7, D266A); test: ITC binding of histone peptides to Sgf29 D266A
T3 construct: 6xHis (cleaved yes); made in house; host or cells: E. coli Rosetta BL21 DE3 PlysS
T3 sequence (Q96ES7 115-293 D266A): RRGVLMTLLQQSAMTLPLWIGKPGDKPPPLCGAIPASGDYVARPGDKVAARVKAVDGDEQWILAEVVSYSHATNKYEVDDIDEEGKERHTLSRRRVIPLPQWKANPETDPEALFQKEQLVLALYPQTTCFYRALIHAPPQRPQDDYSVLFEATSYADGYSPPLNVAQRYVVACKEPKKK

[4] = target: T4, Sgf29 D266N (Homo sapiens, UniProt Q96ES7, D266N); test: ITC binding of histone peptides to Sgf29 D266N
T4 construct: 6xHis (cleaved yes); made in house; host or cells: E. coli Rosetta BL21 DE3 PlysS
T4 sequence (Q96ES7 115-293 D266N): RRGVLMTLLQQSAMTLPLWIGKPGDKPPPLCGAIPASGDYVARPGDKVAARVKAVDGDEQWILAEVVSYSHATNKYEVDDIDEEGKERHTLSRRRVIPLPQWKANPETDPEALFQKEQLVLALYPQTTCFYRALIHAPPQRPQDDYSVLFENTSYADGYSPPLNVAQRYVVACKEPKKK

[5] = target: T5, Sgf29 D266W (Homo sapiens, UniProt Q96ES7, D266W); test: ITC binding of histone peptides to Sgf29 D266W
T5 construct: 6xHis (cleaved yes); made in house; host or cells: E. coli Rosetta BL21 DE3 PlysS
T5 sequence (Q96ES7 115-293 D266W): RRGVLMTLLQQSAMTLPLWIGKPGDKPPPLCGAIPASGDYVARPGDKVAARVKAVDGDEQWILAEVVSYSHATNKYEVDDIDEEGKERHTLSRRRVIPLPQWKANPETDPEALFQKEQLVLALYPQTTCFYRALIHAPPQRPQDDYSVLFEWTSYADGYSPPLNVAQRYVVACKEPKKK

[6] = target: T6, Sgf29 D266Y (Homo sapiens, UniProt Q96ES7, D266Y); test: ITC binding of histone peptides to Sgf29 D266Y
T6 construct: 6xHis (cleaved yes); made in house; host or cells: E. coli Rosetta BL21 DE3 PlysS
T6 sequence (Q96ES7 115-293 D266Y): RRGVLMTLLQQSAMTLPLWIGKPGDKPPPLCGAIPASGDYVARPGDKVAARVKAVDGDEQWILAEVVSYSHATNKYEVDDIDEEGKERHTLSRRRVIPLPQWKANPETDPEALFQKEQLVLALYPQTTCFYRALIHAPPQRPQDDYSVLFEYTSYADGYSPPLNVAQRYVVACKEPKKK

[7] = target: T7, Sgf29 D266F (Homo sapiens, UniProt Q96ES7, D266F); test: ITC binding of histone peptides to Sgf29 D266F
T7 construct: 6xHis (cleaved yes); made in house; host or cells: E. coli Rosetta BL21 DE3 PlysS
T7 sequence (Q96ES7 115-293 D266F): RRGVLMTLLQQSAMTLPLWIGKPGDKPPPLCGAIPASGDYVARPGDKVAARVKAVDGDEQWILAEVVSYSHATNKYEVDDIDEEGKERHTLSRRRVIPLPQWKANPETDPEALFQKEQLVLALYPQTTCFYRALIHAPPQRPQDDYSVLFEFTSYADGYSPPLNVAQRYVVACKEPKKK

[8] = target: T8, Sgf29 Y238F (Homo sapiens, UniProt Q96ES7, Y238F); test: ITC binding of histone peptides to Sgf29 Y238F
T8 construct: 6xHis (cleaved yes); made in house; host or cells: E. coli Rosetta BL21 DE3 PlysS
T8 sequence (Q96ES7 115-293 Y238F): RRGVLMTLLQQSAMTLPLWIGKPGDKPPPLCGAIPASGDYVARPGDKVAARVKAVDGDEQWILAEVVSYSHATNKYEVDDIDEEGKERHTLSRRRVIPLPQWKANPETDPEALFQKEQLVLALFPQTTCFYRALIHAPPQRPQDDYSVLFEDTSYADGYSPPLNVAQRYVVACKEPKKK

[9] = target: T9, Sgf29 Y245F (Homo sapiens, UniProt Q96ES7, Y245F); test: ITC binding of histone peptides to Sgf29 Y245F
T9 construct: 6xHis (cleaved yes); made in house; host or cells: E. coli Rosetta BL21 DE3 PlysS
T9 sequence (Q96ES7 115-293 Y245F): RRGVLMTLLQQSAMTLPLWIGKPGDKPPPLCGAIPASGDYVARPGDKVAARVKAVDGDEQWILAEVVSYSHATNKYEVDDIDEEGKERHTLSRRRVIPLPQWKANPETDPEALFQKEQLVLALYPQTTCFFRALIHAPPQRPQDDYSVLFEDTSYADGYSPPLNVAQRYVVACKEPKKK

[10] = WT Sgf29, TRIS pH 8.0, ± SD (2–4 repeats)
[11] = D266E, TRIS pH 8.0, ± SD (2–4 repeats)
[12] = D266A, TRIS pH 8.0, ± SD (2–4 repeats)
[13] = D266N, TRIS pH 8.0, ± SD (2–4 repeats)
[14] = D266Y, TRIS pH 8.0, ± SD (2–4 repeats)
[15] = D266F, TRIS pH 8.0, ± SD (2–4 repeats)
[16] = Y238F, TRIS pH 8.0, ± SD (2–4 repeats)
[17] = Y245F, TRIS pH 8.0, ± SD (2–4 repeats)

-TΔS° less favorable relative to Sgf29-H3K4me2, by ([1]; H3K4me3 vs H3K4me2, WT Sgf29): 0.7 kcal/mol
ΔH° more favorable relative to Sgf29-H3K4me2, by ([1]; H3K4me3 vs H3K4me2, WT Sgf29): 0.9 kcal/mol
ΔG° [1, 10]: -7.5 ± 0.1 kcal/mol
-TΔS° [2, 11]: 1.6 ± 0.1 kcal/mol
ΔG° [2, 11]: -7.4 ± 0.1 kcal/mol
ΔH° [2, 11]: -9.0 ± 0.1 kcal/mol
more unfavorable ΔH° (difference) ([3]; D266A relative to WT Sgf29): 1.7 kcal/mol
reduction in binding affinity ([3]; D266A relative to WT Sgf29): 8 fold
-TΔS° [3, 12]: 0.1 ± 0.1 kcal/mol
ΔG° [3, 12]: -6.3 ± 0.1 kcal/mol
ΔH° [3, 12]: -6.4 ± 0.1 kcal/mol
decrease in binding affinity ([4]; D266N relative to WT Sgf29): 8 fold
increase in entropy / -TΔS° ([4]; D266N relative to WT Sgf29): 0.7 kcal/mol
-TΔS° [4, 13]: -0.1 ± 0.1 kcal/mol
ΔH° [4, 13]: -6.2 ± 0.1 kcal/mol
binding (in words) [5]: abrogated
decrease in enthalpy ([6]; D266Y relative to WT Sgf29): 3.3 kcal/mol
increase in entropy ([6]; D266Y relative to WT Sgf29): about 2.1 kcal mol^-1
-TΔS° [6, 14]: -1.4 ± 0.3 kcal/mol
ΔG° [6, 14]: -6.2 ± 0.1 kcal/mol
ΔH° [6, 14]: -4.8 ± 0.2 kcal/mol
decrease in ΔH° ([7]; D266F relative to WT Sgf29): 4.6 kcal/mol
more favorable -TΔS° (difference) ([7]; D266F relative to WT Sgf29): 3.1 kcal/mol
reduction in binding affinity ([7]; D266F relative to WT Sgf29): 14 fold
-TΔS° [7, 15]: -2.5 ± 0.1 kcal/mol
ΔG° [7, 15]: -5.9 ± 0.1 kcal/mol
ΔH° [7, 15]: -3.4 ± 0.2 kcal/mol
thermodynamic profile (in words) ([8]; Y238F variants with altered or similar CD spectra, compared to WT Sgf29): indistinguishable thermodynamic profiles
-TΔS° [8, 16]: 0.7 ± 0.1 kcal/mol
ΔG° [8, 16]: -7.4 ± 0.1 kcal/mol
ΔH° [8, 16]: -8.1 ± 0.1 kcal/mol
reduced binding affinity ([9]; Y245F relative to WT Sgf29): 4.5 fold
-TΔS° [9, 17]: -0.7 ± 0.1 kcal/mol
ΔG° [9, 17]: -6.6 ± 0.1 kcal/mol
ΔH° [9, 17]: -5.9 ± 0.1 kcal/mol
Structure (SMILES): C[C@H](N)C(=O)N[C@@H](CCCNC(=N)N)C(=O)N[C@H](C(=O)N[C@@H](CCCC[N+](C)(C)C)C(=O)N[C@@H](CCC(N)=O)C(=O)N[C@H](C(=O)N[C@@H](C)C(=O)N[C@@H](CCCNC(=N)N)C(=O)N[C@@H](CCCCN)C(=O)N[C@@H](CO)C(N)=O)[C@@H](C)O)[C@@H](C)O [H3K4me3]
-TΔS° [1, 10]: 0.6 kcal/mol and 0.6 ± 0.2 kcal/mol
ΔH° [1, 10]: -8.1 kcal/mol and -8.1 ± 0.2 kcal/mol
binding affinity (in words) ([2]; D266E relative to WT Sgf29): virtually indistinguishable binding affinities
ΔG° [4, 13]: -6.3 kcal/mol and -6.3 ± 0.1 kcal/mol
